Experimental data as given in patent US7087021B2, “Methods of screening for genes and agents affecting cardiac function” (priority 2001, dated 2006).

System: Drosophila heart
Test: Effects of anesthesia on heart rate
Format: in vivo, Drosophila melanogaster
Details: for effect of anesthesia on heart rate (in words): anesthetized Drosophila
Description: […] The flies are removed from the vial as soon as they are immobile.
A more preferred aspect the microscope is a Nikon Diaphot-TMD inverted microscope, with Nomarski (DIC) optics (without analyzer) and a 10×(N.A. 0.25) objective. Preferably, images are obtained by closing the field diaphragm, so that the light-beam is concentrated on the first ventricle of the fly's heart, and the intensity of the light-beam is increased to the maximum. Most preferably, the flies are positioned on their backs, approximately perpendicular to the light path, and fixed in this position by mounting the spread wings on a glass slide with double-stick tape. Images of the first cardiac ventricle are recorded using a Sony DXC-101 video camera on VHS tape, or using a similar recording apparatus, and the heart rate is measured from slow-motion replays. End-diastolic and end-systolic dimensions are measured on still images at the mid-point between the two major transversal tracheal tubes passing over the first cardiac ventricle. The images can also be analyzed by appropriate image analysis software. In certain aspects of the present invention semi-automated digital image processing is used to measure heart rate and its variation directly from video signals recorded in a single fly or multiple flies. Automated detection allows parameters such as heart rate variability to be detected in a single fly. […] For each fly 2-second video sequences (60 frames each) 10 times consecutively are acquired. […] After applying a low pass filter to reduce noise in the time-space signal, heart rate is estimated by automated counting of the peaks in the signal. […] An average and a standard deviation of the repetitions in the same fly, for example (i.e. about 10 repetitions) are obtained and the coefficient of variation is calculated (Armitage P, Berry G. Statistical Methods in Medical Research. 3rd ed. Oxford: Blackwell Scientific; 1994).
CO2 the most commonly employed anesthetic for Drosophila.

O=C=O [CO2]
effect of anesthesia on heart rate (in words): cardiac arrest within a few seconds | resumption of heart beat after cessation of gas exposure (n=10): 20 to 30 s

CCOCC [Ethyl-ether]
effect of anesthesia on heart rate (in words): depress heart rate | heart rate immediately after anesthesia (immediately after ether anesthesia, n=5): 120±19 beats per minute | heart rate after 30–40 min when leg movements began to return (same flies after 30–40 min, n=5, p=0.001): 248±11 beats per minute

CCN(CC)CC [triethylamine]
effect of anesthesia on heart rate (in words): not cause significant changes in heart rate | heart rate immediately after anesthesia (older flies, 48 days, n=7, first value): 213±6 beats per minute | heart rate after recovery under the same conditions (older flies, 48 days, n=7, second value): 211±11 beats per minute | heart rate immediately after anesthesia (young flies, 10 days, n=6, first value): 283±6 beats per minute | heart rate after recovery under the same conditions (young flies, 10 days, n=6, second value): 282±4 beats per minute
